Results reported in patent US8785436B2, “1,3-oxazines as BACE 1 and/or BACE2 inhibitors” (Hoffmann-La Roche Inc., priority 2011, dated 2014).
Structures can show the parent of a compound that is named as a salt.

target: T1, BACE1 (Homo sapiens, UniProt P56817); assay: Cellular Aβ-lowering assay a) (Aβ40 ELISA, HEK293 APP cells); format: cell-based; conditions: cellular assay a): HEK293 APP695 cells, 18-20 hrs incubation, read-out: BACE1 cell act. Aβ40 IC50
T1 construct: Human HEK293 cells which are stably transfected with a vector expressing a cDNA of the human APP wt gene (APP695); endogenous in cells; host or cells: HEK293 cells stably expressing human APP695 wt
Experimental: Cellular Aβ-Lowering Assay:
a) Human HEK293 cells which are stably transfected with a vector expressing a cDNA of the human APP wt gene (APP695) were used to assess the potency of the compounds in a cellular assay. The cells were seeded in 96-well microtiter plates in cell culture medium (Iscove, plus 10% (v/v) fetal bovine serum, glutamine, penicillin/streptomycin) to about 80% confluence and the compounds were added at a 10× concentration in 1/10 volume of medium without FCS containing 8% DMSO (final concentration of DMSO was kept at 0.8% v/v). After 18-20 hrs incubation at 37° C. and 5% CO2 in a humidified incubator the culture supernatant was harvested for the determination of Aβ40 concentrations. 96 well ELISA plates (e.g., Nunc MaxiSorb) were coated with monoclonal antibody which specifically recognize the C-terminal end of Aβ40 (Brockhaus et al., NeuroReport 9, 1481-1486; 1998). After blocking of non-specific binding sites with e.g. 1% BSA and washing, the culture supernatants were added in suitable dilutions together with a horseradish peroxidase-coupled Aβ detection antibody (e.g., antibody 4G8, Senetek, Maryland Heights, Mo.) and incubated for 5 to 7 hrs. Subsequently the wells of the microtiter plate were washed extensively with Tris-buffered saline containing 0.05% Tween 20 and the assay was developed with tetramethylbenzidine/H2O2 in citric acid buffer. After stopping the reaction with one volume 1 NH2SO4 the reaction was measured in an ELISA reader at 450 nm wavelength. The concentrations of Aβ in the culture supernatants were calculated from a standard curve obtained with known amounts of pure Aβ peptide.

T1 sequence (P56817 46-501): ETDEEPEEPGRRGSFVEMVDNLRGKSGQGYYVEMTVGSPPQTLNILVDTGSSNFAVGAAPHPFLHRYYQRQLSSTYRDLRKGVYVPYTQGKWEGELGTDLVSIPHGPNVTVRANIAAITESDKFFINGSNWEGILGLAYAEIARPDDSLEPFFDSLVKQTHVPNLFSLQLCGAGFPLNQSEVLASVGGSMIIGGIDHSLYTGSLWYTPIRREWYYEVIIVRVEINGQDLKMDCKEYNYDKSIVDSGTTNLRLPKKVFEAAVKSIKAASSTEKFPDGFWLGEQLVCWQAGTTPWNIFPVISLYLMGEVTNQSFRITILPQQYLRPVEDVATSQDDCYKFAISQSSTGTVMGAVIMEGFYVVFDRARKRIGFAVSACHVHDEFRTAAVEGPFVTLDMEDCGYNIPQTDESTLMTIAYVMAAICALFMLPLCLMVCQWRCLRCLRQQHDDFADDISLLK

How did the IC50 turn out when Cc1cc(C(C)Nc2ccc(F)c([C@@]3(C)N=C(N)OCC3(F)F)c2)[nH]n1 (mixture of isomers) [Example 17, (R)-5,5-Difluoro-4-{2-fluoro-5-[(RS)-1-(5-methyl-2H-pyrazol-3-yl)-ethylamino]-phenyl}-4-methyl-5,6-dihydro-4H-[1,3]oxazin-2-ylamine] was run?
The IC50 was 0.43 µM.

How did the IC50 turn out when CC(Nc1ccc(F)c([C@@]2(C)N=C(N)OCC2(F)F)c1)c1nn(C)cc1Cl (mixture of isomers) [Example 18, (R)-4-{5-[(RS)-1-(4-Chloro-1-methyl-1H-pyrazol-3-yl)-ethylamino]-2-fluoro-phenyl}-5,5-difluoro-4-methyl-5,6-dihydro-4H-[1,3]oxazin-2-ylamine] was run?
The IC50 was 1.23 µM.

For CC(Nc1ccc(F)c([C@@]2(C)N=C(N)OCC2(F)F)c1)c1nn(CC(F)F)cc1Cl (mixture of isomers) [Example 19, (R)-4-(5-{(RS)-1-[4-Chloro-1-(2,2-difluoro-ethyl)-1H-pyrazol-3-yl]-ethylamino}-2-fluoro-phenyl)-5,5-difluoro-4-methyl-5,6-dihydro-4H-[1,3]oxazin-2-ylamine], which IC50 is on record?
Its IC50 is 1.8 µM.

How did the IC50 turn out when CC(Nc1ccc(F)c([C@@]2(C)N=C(N)OCC2(F)F)c1)c1cc(C2CC2)on1 (mixture of isomers) [Example 20, (R)-4-{5-[(RS)-1-(5-Cyclopropyl-isoxazol-3-yl)-ethylamino]-2-fluoro-phenyl}-5,5-difluoro-4-methyl-5,6-dihydro-4H-[1,3]oxazin-2-ylamine] was run?
The IC50 was 2 µM.

With C[C@]1(c2cc(NC3CCOC3)ccc2F)N=C(N)OCC1(F)F (mixture of isomers) [Example 26, (R)-5,5-Difluoro-4-{2-fluoro-5-[(RS)-(tetrahydro-furan-3-yl)amino]-phenyl}-4-methyl-5,6-dihydro-4H-[1,3]oxazin-2-ylamine] as the compound, how does the IC50 read?
The IC50 was 0.4 µM.

Which IC50 does the source give for C[C@]1(c2cc(NC3CCCc4cc(C#N)cnc43)ccc2F)N=C(N)OCC1(F)F (mixture of isomers) [Example 27, (RS)-8-[3-((R)-2-Amino-5,5-difluoro-4-methyl-5,6-dihydro-4H-[1,3]oxazin-4-yl)-4-fluoro-phenylamino]-5,6,7,8-tetrahydro-quinoline-3-carbonitrile] here?
Its IC50 is 0.46 µM.

With C[C@]1(c2cc(NC3CS(=O)(=O)c4ccccc43)ccc2F)N=C(N)OCC1(F)F (mixture of isomers) [Example 28, (R)-4-[5-((RS)-1,1-Dioxo-2,3-dihydro-1H-1λ6-benzo[b]thiophen-3-ylamino)-2-fluoro-phenyl]-5,5-difluoro-4-methyl-5,6-dihydro-4H-[1,3]oxazin-2-ylamine] as the compound, how does the IC50 read?
The IC50 was 1.63 µM.

For C[C@]1(c2cc(NCC3CCOC3)ccc2F)N=C(N)OCC1(F)F (mixture of isomers) [Example 30, (R)-5,5-Difluoro-4-{2-fluoro-5-{[(RS)-1-(tetrahydro-furan-3-yl)methyl]-amino}-phenyl}-4-methyl-5,6-dihydro-4H-[1,3]oxazin-2-ylamine], which IC50 is on record?
Its IC50 is 2.16 µM.

C[C@]1(c2cc3c(cc2F)OCC(c2ccc(Cl)cn2)N3)N=C(N)OCC1(F)F (mixture of isomers) [Example 38, (R)-4-[(RS)-3-(5-Chloro-pyridin-2-yl)-7-fluoro-3,4-dihydro-2H-benzo[1,4]oxazin-6-yl]-5,5-difluoro-4-methyl-5,6-dihydro-4H-[1,3]oxazin-2-ylamine] was tested. Which IC50 did it give?
Its IC50 is 5.46 µM.

For C[C@@]1(c2cc(NC3CCCC3)ccc2F)CCOC(N)=N1 [Example 2, (S)-4-(5-Cyclopentylamino-2-fluoro-phenyl)-4-methyl-5,6-dihydro-4H-[1,3]oxazin-2-ylamine], which IC50 is on record?
Its IC50 is 0.34 µM.

With C[C@]1(c2cc(NCc3ccsc3)ccc2F)N=C(N)OC[C@@H]1F [Example 6, (4R,5R)-5-Fluoro-4-{2-fluoro-5-[(thiophen-3-ylmethyl)-amino]-phenyl}-4-methyl-5,6-dihydro-4H-[1,3]oxazin-2-ylamine] as the compound, how does the IC50 read?
The IC50 was 0.66 µM.

C[C@]1(c2cc(-c3cncc(C#N)c3)ccc2F)N=C(N)OC[C@@H]1F [Example 9, 5-[3-((4R,5R)-2-Amino-5-fluoro-4-methyl-5,6-dihydro-4H-[1,3]oxazin-4-yl)-4-fluoro-phenyl]-nicotinonitrile] was tested. Which IC50 did it give?
The IC50 was 0.19 µM.

How did the IC50 turn out when C[C@]1(c2cc(-c3cnn(-c4ccc(F)cc4)c3)ccc2F)N=C(N)OC[C@@H]1F [Example 10, (4R,5R)-5-Fluoro-4-{2-fluoro-5-[1-(4-fluoro-phenyl)-1H-pyrazol-4-yl]-phenyl}-4-methyl-5,6-dihydro-4H-[1,3]oxazin-2-ylamine Hydrochloride] was run?
The IC50 was 0.36 µM.

With Cc1cnn(-c2ccc(F)c([C@@]3(C)N=C(N)OC[C@@H]3F)c2)c1 [Example 11, (4R,5R)-5-Fluoro-4-[2-fluoro-5-(4-methyl-pyrazol-1-yl)-phenyl]-4-methyl-5,6-dihydro-4H-[1,3]oxazin-2-ylamine] as the compound, how does the IC50 read?
Its IC50 is 1.3 µM.

For CC1(CNc2ccc(F)c([C@@]3(C)N=C(N)OCC3(F)F)c2)COC1 [Example 24, (R)-5,5-Difluoro-4-{2-fluoro-5-[(3-methyl-oxetan-3-ylmethyl)-amino]-phenyl}-4-methyl-5,6-dihydro-4H-[1,3]oxazin-2-ylamine], which IC50 is on record?
Its IC50 is 0.3 µM.

For C[C@]1(c2cc(NC3COC3)ccc2F)N=C(N)OCC1(F)F [Example 29, (R)-5,5-Difluoro-4-[2-fluoro-5-(oxetan-3-ylamino)-phenyl]-4-methyl-5,6-dihydro-4H-[1,3]oxazin-2-ylamine], which IC50 is on record?
Its IC50 is 1.96 µM.

How did the IC50 turn out when C[C@]1(c2cc(-c3cnn(-c4ccc(F)cc4)c3)ccc2F)N=C(N)OCC1(F)F [Example 31, (R)-5,5-Difluoro-4-{2-fluoro-5-[1-(4-fluoro-phenyl)-1H-pyrazol-4-yl]-phenyl}-4-methyl-5,6-dihydro-4H-[1,3]oxazin-2-ylamine] was run?
Its IC50 is 8.44 µM.

For C[C@]1(c2cccc(OCc3ccc(C#N)cc3)c2)N=C(N)OCC1(F)F [Example 34, 4-[3-((R)-2-Amino-5,5-difluoro-4-methyl-5,6-dihydro-4H-[1,3]oxazin-4-yl)-phenoxymethyl]-benzonitrile], which IC50 is on record?
Its IC50 is 1.4 µM.

How did the IC50 turn out when C[C@]1(c2cccc(OCc3ccc(Cl)cc3)c2)N=C(N)OCC1(F)F [Example 35, (R)-4-[3-(4-Chloro-benzyloxy)-phenyl]-5,5-difluoro-4-methyl-5,6-dihydro-4H-[1,3]oxazin-2-ylamine] was run?
Its IC50 is 4 µM.

For C[C@]1(c2cccc(OCc3ccc(C(F)(F)F)cc3)c2)N=C(N)OCC1(F)F [Example 36, (R)-5,5-Difluoro-4-methyl-4-[3-(4-trifluoromethyl-benzyloxy)-phenyl]-5,6-dihydro-4H-[1,3]oxazin-2-ylamine], which IC50 is on record?
The IC50 was 7.74 µM.

For Cc1ccc(Cc2nc3ccc([C@@]4(C)N=C(N)OCC4(F)F)cc3[nH]2)cc1 [Example 37, (R)-5,5-Difluoro-4-methyl-4-[2-(4-methyl-benzyl)-3H-benzoimidazol-5-yl]-5,6-dihydro-4H-[1,3]oxazin-2-ylamine], which IC50 is on record?
The IC50 was 0.3 µM.

COc1ccc(Cc2cc3cc(F)c([C@@]4(C)N=C(N)OCC4(F)F)cc3[nH]2)cc1 [Example 39, (R)-5,5-Difluoro-4-[5-fluoro-2-(4-methoxy-benzyl)-1H-indol-6-yl]-4-methyl-5,6-dihydro-4H-[1,3]oxazin-2-ylamine] was tested. Which IC50 did it give?
Its IC50 is 5.67 µM.

How did the IC50 turn out when C#CCNC(=O)c1ccc(F)c([C@@]2(C)N=C(N)OCC2(F)F)c1 [Example 41, 3-((R)-2-Amino-5,5-difluoro-4-methyl-5,6-dihydro-4H-[1,3]oxazin-4-yl)-4-fluoro-N-prop-2-ynyl-benzamide] was run?
Its IC50 is 6.62 µM.

For CC1(C)OC(N)=N[C@](C)(c2cc(Nc3ccccc3Cl)ccc2F)C1(F)F [Example 42, (R)-4-[5-(2-Chloro-phenylamino)-2-fluoro-phenyl]-5,5-difluoro-4,6,6-trimethyl-5,6-dihydro-4H-[1,3]oxazin-2-ylamine], which IC50 is on record?
Its IC50 is 1.47 µM.

Cc1ccccc1Nc1ccc(F)c([C@@]2(C)N=C(N)OC(C)(C)C2(F)F)c1 [Example 45, (R)-5,5-Difluoro-4-(2-fluoro-5-o-tolylamino-phenyl)-4,6,6-trimethyl-5,6-dihydro-4H-[1,3]oxazin-2-ylamine] was tested. Which IC50 did it give?
The IC50 was 2.92 µM.

Which IC50 does the source give for CC1(C)OC(N)=N[C@](C)(c2cc(Nc3ccccc3C(F)(F)F)ccc2F)C1(F)F [Example 46, (R)-5,5-Difluoro-4-[2-fluoro-5-(2-trifluoromethyl-phenylamino)-phenyl]-4,6,6-trimethyl-5,6-dihydro-4H-[1,3]oxazin-2-ylamine] here?
Its IC50 is 6.92 µM.

How did the IC50 turn out when CC1(C)OC(N)=N[C@](C)(c2cc(-c3cncc(Cl)c3)ccc2F)C1(F)F [Example 50, (R)-4-[5-(5-Chloro-pyridin-3-yl)-2-fluoro-phenyl]-5,5-difluoro-4,6,6-trimethyl-5,6-dihydro-4H-[1,3]oxazin-2-ylamine Hydrochloride] was run?
Its IC50 is 9.08 µM.
